For one experiment, the target named is T1, IL-23R (Homo sapiens, UniProt Q5VWK5).
T1 construct: host or cells: HEK293
T1 sequence (Q5VWK5 24-629): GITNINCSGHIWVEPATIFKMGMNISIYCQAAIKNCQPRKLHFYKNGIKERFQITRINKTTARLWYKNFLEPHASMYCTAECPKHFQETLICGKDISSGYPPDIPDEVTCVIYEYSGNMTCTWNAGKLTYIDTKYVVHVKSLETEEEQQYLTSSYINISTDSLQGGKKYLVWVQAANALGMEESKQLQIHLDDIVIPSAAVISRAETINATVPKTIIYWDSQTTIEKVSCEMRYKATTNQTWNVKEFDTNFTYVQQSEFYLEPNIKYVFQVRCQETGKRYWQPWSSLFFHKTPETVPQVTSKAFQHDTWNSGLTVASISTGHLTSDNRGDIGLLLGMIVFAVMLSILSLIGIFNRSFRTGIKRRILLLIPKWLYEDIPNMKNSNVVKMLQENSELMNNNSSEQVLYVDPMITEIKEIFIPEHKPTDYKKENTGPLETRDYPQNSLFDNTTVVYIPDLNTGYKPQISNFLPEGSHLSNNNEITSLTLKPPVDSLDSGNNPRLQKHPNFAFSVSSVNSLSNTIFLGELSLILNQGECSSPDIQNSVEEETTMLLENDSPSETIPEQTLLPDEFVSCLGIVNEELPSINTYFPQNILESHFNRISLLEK
The experiment can be described thus: IL23R Reporter Assay. Format: cell-based. To be noted: HEK293 cells containing IL-23R, IL-12Rβ1 and STAT-inducible luciferase reporter; 10 ng/mL IL-23; 5 h; read-out: IC50. The method, then: Compounds were serially diluted in 100% (v/v) DMSO) and plated using an Echo acoustic dispenser (Labcyte) into 1536-well non-treated black assay plates (Corning #9146). […] After 5 h at 37° C., 5% CO2, 95% relative humidity, cells were placed at 20° C. and treated with BioGlo reagent (Promega) according to the Manufacturer's instructions. Luminescence was measured on a Pherastar FSX (BMG LabTech).
Background: In a reporter assay the amount or activity of a reporter protein is the signal.

Experiment [1] deals with T2, IL-23-stimulated phosphorylated STAT3 in peripheral blood mononuclear cells (PBMCs) (Homo sapiens, UniProt Q5VWK5).
T2 sequence (Q5VWK5 24-629): T1 sequence (Q5VWK5 24-629)
Briefly: PBMC pSTAT3 Assay. Format: cell-based. To be noted: PBMCs from healthy donors, IL-23 5 ng/mL, 30 minutes, read-out: PBMC pSTAT3 IC50. The method, then: Cryopreserved peripheral blood mononuclear cells (PBMCs) from healthy donors were thawed and washed twice in ImmunoCult-XF T cell expansion medium (XF-TCEM) supplemented with CTL anti-aggregate wash. The cells were counted, resuspended at 2-6×10^5 cells per mL XF-TCEM supplemented with penicillin/streptomycin and 100 ng/mL IL-1β (BioLegend, 579404), and cultured in tissue culture flasks coated with anti-CD3 (eBioscience, 16-0037-85 or BD Pharmingen, 555329) at 37° C. in 5% CO2. On day 4 of culture, PBMCs were collected, washed twice in RPMI-1640 supplemented with 0.1% BSA (RPMI-BSA), and incubated in RPMI-BSA in upright tissue culture flasks for ˜4 hours at 37° C. in 5% CO2. Following this ‘starvation,’ a total of 6×10^4 cells in 30 μL RPMI-BSA was transferred into each well of a 384-well plate pre-spotted with peptide or DMSO. The cells were incubated for 30 minutes prior to the addition of IL-23 at a final concentration of 5 ng/mL. The cells were stimulated with cytokine for 30 minutes at 37° C. in 5% CO2, transferred onto ice for 10 minutes, and lysed. Cell lysates were stored at −80° C. until phosphorylated STAT3 was measured using the phospho-STAT panel kit (Meso Scale Discovery, K15202D).

Starred links: 1 amine or outer side, 2 acyl side, 3 side chain; linkers in the order of their positions; H or OH if unused. Positions of bridges follow the written chain, without caps; N, C: chain ends. Non-standard residues stand in square brackets, D forms with d. Residues, ends and D or L forms follow the SMILES beside them. Groups on a side chain read outwards from the residue. *: point of attachment. Trp(7-(3-AcNH-Ph)) = CC(=O)Nc1cccc(-c2cccc3c(C[C@H](N)C(=O)O)c[nH]c23)c1; Me3N+(CH2)2O(CH2)2O(CH2)2CO = C[N+](C)(C)CCOCCOCCC(=O)*; 2Nal(6-OH) = N[C@@H](Cc1ccc2cc(O)ccc2c1)C(=O)O; Trp(7-Me) = Cc1cccc2c(C[C@H](N)C(=O)O)c[nH]c12; Abu(4-yl) = O=C([C@H](CC[*:3])N[*:1])[*:2]; dLys(Me3) = C[N+](C)(C)CCCC[C@@H](N)C(=O)O; C18 diacid = O=C(O)CCCCCCCCCCCCCCCCC(=O)*; 3Pal(5-Me) = Cc1cncc(C[C@H](N)C(=O)O)c1; γGlu = O=C(O)[C@H](CCC(=O)[*:2])N[*:1]; AEF = NCCOc1ccc(C[C@H](N)C(=O)O)cc1; 3Pal = N[C@@H](Cc1cccnc1)C(=O)O; Ethyl(2-guanidino) = N=C(N)NCC*; Aad = N[C@@H](CCCC(=O)O)C(=O)O; Lys(Me) = CNCCCC[C@H](N)C(=O)O; Pen = CC(C)(S)[C@H](N)C(=O)O; Thp = NC1(C(=O)O)CCOCC1; X18 = C[N+](C)(C)CCCCC*; AEEA = NCCOCCOCC(=O)O; Ava = NCCCCC(=O)O; Sar = CNCC(=O)O

What is called IC50 is the concentration at which inhibition is half-maximal. `CC(=O)N(C)CCCC[C@@H]1NC(=O)[C@H](Cc2c[nH]c3c(C)cccc23)NC(=O)[C@H]([C@@H](C)O)NC(=O)[C@H](CC(=O)N(C)C)NC(=O)[C@H]2NC(=O)[C@H](NC(=O)CCOCCOCC[N+](C)(C)C)CCCCNC(=O)CCC[C@@H](C(=O)N[C@@H](CC(N)=O)C(=O)N[C@@H](Cc3cccnc3)C(=O)N(C)CC(=O)N(C)C)NC(=O)C3(CCOCC3)NC(=O)[C@H](Cc3ccc4cc(O)ccc4c3)NC(=O)[C@H](Cc3ccc(OCCN)cc3)NC(=O)[C@@H](NC1=O)C(C)(C)SSC2(C)C` [compound 373, cPEG3aCO-k(2)-Pen(3)-N(N(Me)2)-T-7MeW-K(NMeAc)-Pen(3)-AEF-6OH2Nal-THP-hE(2)-N-3Pya-Sar-CON(Me)2] ({Me3N+(CH2)2O(CH2)2O(CH2)2CO}-[dK][Pen]D(NMe2)T[Trp(7-Me)][Lys(Me)](Ac)[Pen][AEF][2Nal(6-OH)][Thp][Aad]N[3Pal][Sar]-NMe2; lactam 1-11; disulfide 2-7): the figures for the half-inhibitory concentration (IC50) (on IL-23R; in experiment [1]) were < 10 nM and < 0.01 nM, respectively.

Consider `CC(=O)NCCCC[C@@H]1NC(=O)[C@H](Cc2c[nH]c3c(C)cccc23)NC(=O)[C@H]([C@@H](C)O)NC(=O)[C@H](CC(N)=O)NC(=O)[C@@H](NC(C)=O)C(C)(C)SSC(C)(C)[C@@H](C(=O)N[C@@H](Cc2ccc(OCCN)cc2)C(=O)N[C@@H](Cc2ccc3cc(O)ccc3c2)C(=O)NC2(C(=O)N[C@@H](CCCCNC(=O)COCCOCCNC(=O)COCCOCCNC(=O)CC[C@H](NC(=O)CCCCCCCCCCCCCCCCC(=O)O)C(=O)O)C(=O)N[C@@H](CC(N)=O)C(=O)N[C@@H](Cc3cccnc3)C(=O)N(C)CC(N)=O)CCOCC2)NC1=O` [SEQ ID NO: 273, MeCO-Pen(3)-N-T-7MeW-K(Ac)-Pen(3)-AEF-6OH2Nal-THP-K(PEG2PEG2gEC18OH)-N-3Pya-Sar-CONH2] (Ac-[Pen]NT[Trp(7-Me)]K(Ac)[Pen][AEF][2Nal(6-OH)][Thp]K([AEEA-AEEA-γGlu-C18 diacid])N[3Pal][Sar]-NH2; disulfide 1-6), for which the IC50 was 10 to 100 nM at IL-23R and 0.01 to 0.1 nM in experiment [1].

`CC(=O)NCCCC[C@@H]1NC(=O)[C@H](Cc2c[nH]c3c(C)cccc23)NC(=O)[C@H]([C@@H](C)O)NC(=O)[C@H](CC(N)=O)NC(=O)[C@@H](NC(=O)[C@@H](CCCNC(=N)N)NC(C)=O)C(C)(C)SSC(C)(C)[C@@H](C(=O)N[C@@H](Cc2ccc(OCCCCC[N+](C)(C)C)cc2)C(=O)N[C@@H](Cc2ccc3cc(O)ccc3c2)C(=O)NC2(C(=O)N[C@@H](CCC(=O)O)C(=O)N[C@@H](CC(N)=O)C(=O)N[C@@H](Cc3cccnc3)C(=O)N(C)CC(N)=O)CCOCC2)NC1=O` [compound 59, MeCO-r-Pen(3)-N-T-7MeW-K(Ac)-Pen(3)-TMAPF-6OH2Nal-THP-E-N-3Pya-Sar-CONH2] (Ac-[dR][Pen]NT[Trp(7-Me)]K(Ac)[Pen]Y(X18)[2Nal(6-OH)][Thp]EN[3Pal][Sar]-NH2; disulfide 2-7): the IC50 at IL-23R is < 10 nM; in experiment [1], 0.01 to 0.1 nM.

With `CC(=O)NCCCC[C@@H]1NC(=O)[C@H](Cc2c[nH]c3c(C)cccc23)NC(=O)[C@H]([C@@H](C)O)NC(=O)[C@H](CC(N)=O)NC(=O)[C@@H]2CCSC[C@H](NC1=O)C(=O)N[C@@H](Cc1ccc(OCCN)cc1)C(=O)N[C@@H](Cc1ccc3cc(O)ccc3c1)C(=O)NC1(CCOCC1)C(=O)N[C@H](C(=O)N[C@@H](CC(N)=O)C(=O)N[C@@H](Cc1cccnc1)C(=O)N(C)CC(N)=O)CCC(=O)NCCCCC(=O)N2` [compound 171] ([Ava][Abu(4-yl)]NT[Trp(7-Me)]K(Ac)C[AEF][2Nal(6-OH)][Thp]EN[3Pal][Sar]-NH2; thioether 2-7; lactam N-11), the IC50 on IL-23R was < 10 nM; in experiment [1], < 0.01 nM.

As for `CC(=O)NCCCC[C@@H]1NC(=O)[C@H](Cc2c[nH]c3c(-c4cccc(NC(C)=O)c4)cccc23)NC(=O)[C@H]([C@@H](C)O)NC(=O)[C@H](CC(N)=O)NC(=O)[C@@H](NC(=O)[C@@H](CCCC[N+](C)(C)C)NC(C)=O)C(C)(C)SSC(C)(C)[C@@H](C(=O)N[C@@H](Cc2ccc(OCCN)cc2)C(=O)N[C@@H](Cc2ccc3cc(O)ccc3c2)C(=O)NC2(C(=O)N[C@@H](CCC(=O)O)C(=O)N[C@@H](CC(N)=O)C(=O)N[C@@H](Cc3cccnc3)C(=O)N(C)CC(N)=O)CCOCC2)NC1=O` [compound 68, MeCO-k(Me)3-Pen(3)-N-T-7(3NAcPh)W-K(Ac)-Pen(3)-AEF-6OH2Nal-THP-E-N-3Pya-Sar-CONH2] (Ac-[dLys(Me3)][Pen]NT[Trp(7-(3-AcNH-Ph))]K(Ac)[Pen][AEF][2Nal(6-OH)][Thp]EN[3Pal][Sar]-NH2; disulfide 2-7), the half-maximal inhibitory concentration (IC50) on IL-23R is < 10 nM; in experiment [1] it was 0.01 to 0.1 nM.

`Cc1cccc2c(C[C@@H]3NC(=O)[C@H]([C@@H](C)O)NC(=O)[C@H](CC(N)=O)NC(=O)[C@@H](NC(=O)CCOCCOCC[N+](C)(C)C)C(C)(C)SSC(C)(C)[C@@H](C(=O)N[C@@H](Cc4ccc(OCCN)cc4)C(=O)N[C@@H](Cc4ccc5cc(O)ccc5c4)C(=O)NC4(C(=O)N[C@@H](CCC(=O)O)C(=O)N[C@@H](CC(N)=O)C(=O)N[C@@H](Cc5cccnc5)C(=O)N(C)CC(N)=O)CCOCC4)NC(=O)[C@H](CCCCN(C)C(=O)CCOCCOCC[N+](C)(C)C)NC3=O)c[nH]c12` [compound 319, cPEG3aCO-Pen(3)-N-T-7MeW-K(NMecPEG3a)-Pen(3)-AEF-6OH2Nal-THP-E-N-3Pya-Sar-CONH2] ({Me3N+(CH2)2O(CH2)2O(CH2)2CO}-[Pen]NT[Trp(7-Me)][Lys(Me)](Me3N+(CH2)2O(CH2)2O(CH2)2CO)[Pen][AEF][2Nal(6-OH)][Thp]EN[3Pal][Sar]-NH2; disulfide 1-6): the half-maximal inhibitory concentration (IC50) at IL-23R is < 10 nM; in experiment [1], 0.01 to 0.1 nM.

For the compound `CC(=O)NCCCC[C@@H]1NC(=O)[C@H](Cc2c[nH]c3c(-c4cccc(NC(C)=O)c4)cccc23)NC(=O)[C@H]([C@@H](C)O)NC(=O)[C@H](CC(N)=O)NC(=O)[C@@H](NC(=O)[C@@H](CCCC[N+](C)(C)C)NC(C)=O)C(C)(C)SSC(C)(C)[C@@H](C(=O)N[C@@H](Cc2ccc(OCCNC(=N)N)cc2)C(=O)N[C@@H](Cc2ccc3cc(O)ccc3c2)C(=O)NC2(C(=O)N[C@@H](CCC(=O)O)C(=O)N[C@@H](CC(N)=O)C(=O)N[C@@H](Cc3cncc(C)c3)C(=O)N(C)CC(N)=O)CCOCC2)NC1=O` [compound 11, MeCO-k(Me)3-Pen(3)-N-T-7(3NAcPh)W-K(Ac)-Pen(3)-AEF(G)-6OH2Nal-THP-E-N-5MePyridinAla-Sar-CONH2] (Ac-[dLys(Me3)][Pen]NT[Trp(7-(3-AcNH-Ph))]K(Ac)[Pen]Y(Ethyl(2-guanidino))[2Nal(6-OH)][Thp]EN[3Pal(5-Me)][Sar]-NH2; disulfide 2-7), the values for the IC50 (at IL-23R; in experiment [1]) were < 10 nM and < 0.01 nM, respectively.

With `CC(=O)N(C)CCCC[C@@H]1NC(=O)[C@H](Cc2c[nH]c3c(C)cccc23)NC(=O)[C@H]([C@@H](C)O)NC(=O)[C@H](CC(N)=O)NC(=O)[C@@H](NC(=O)CCOCCOCC[N+](C)(C)C)C(C)(C)SSC(C)(C)[C@@H](C(=O)N[C@@H](Cc2ccc(OCCN)cc2)C(=O)N[C@@H](Cc2ccc3cc(O)ccc3c2)C(=O)NC2(C(=O)N[C@@H](CCC(=O)N(C)C)C(=O)N[C@@H](CC(N)=O)C(=O)N[C@@H](Cc3cccnc3)C(=O)N(C)CC(N)=O)CCOCC2)NC1=O` [compound 392, cPEG3aCO-Pen(3)-N-T-7MeW-K(NMeAc)-Pen(3)-AEF-6OH2Nal-THP-Q(N(Me)2)-N-3Pya-Sar-CONH2] ({Me3N+(CH2)2O(CH2)2O(CH2)2CO}-[Pen]NT[Trp(7-Me)][Lys(Me)](Ac)[Pen][AEF][2Nal(6-OH)][Thp]E(NMe2)N[3Pal][Sar]-NH2; disulfide 1-6), the half-maximal inhibitory concentration (IC50) on IL-23R was < 10 nM; in experiment [1], < 0.01 nM.

Values taken from US20240279281A1, “Peptide Inhibitors of Interleukin-23 Receptor” (Janssen Pharmaceutica NV, priority 2023, published 2024).
